Reference: patent US11576911B2, “Composition and method for treatment of depression and psychosis in humans” (Glytech LLC, priority 2012, dated 2023)

Columns and labels:
Male BalbC/J mice = experiment: Rodent forced swim test (FST), immobility time; type: in vivo; parameters: key to Mean immobility time in the rodent forced swim test (FST): seconds of immobility over the 6-min test; details: for Mean immobility time in the rodent forced swim test (FST): Table 5; for immobility time in the rodent forced swim test (FST), Mean: Table 3; for Effect on immobility in the FST, in words: at indicated doses of Table 5
Excerpt: Male BalbC/J mice (8 weeks old) from Jackson Laboratories (Bar Harbor, Me.) were used. Upon receipt, mice were assigned unique identification numbers (tail marked) and were group housed in OPTImice cages. All animals were acclimated to the colony room for 1 week prior to testing. During the period of acclimation, animals were examined on a regular basis, handled, and weighed to assure adequate health and suitability. Animals were maintained on a 12/12 light/dark cycle. The room temperature was maintained between 20 and 23° C. with a relative humidity maintained between 30% and 70%. Chow and water were provided ad libitum for the duration of the study. All testing was performed during the animal's light cycle phase.
Mice were acclimated to the test room at least 1 hour prior to commencing the test. The forced swimming test consisted of one 6-minute session of forced swimming in individual opaque cylinders (15 cm tall×10 cm wide, 1000 ml beakers) containing fresh tap water at a temperature of 23±2° C. and a depth of 12 cm (approximately 800 ml) for each test animal. The time the animal spent immobile was recorded over the 6 min trial. Every 1 min the cumulative immobility time was recorded from the start of the session and noted on the study data record sheet. Immobility was defined as the postural position of floating in the water. The animals were generally observed with the back slightly hunched and the head above water with no movements or with small stabilizing movements of the limbs. After the swim test, each animal was placed in a pre-heated cage with a heating pad and allowed to dry.
The main variable used to represent immobility in this test was the total time immobile during the 6-min test period. Statistics were performed by analysis of variance (ANOVA) with Dunnett post-hoc testing vs. the control condition or by t-test as appropriate.
Sertraline, a known antidepressant, is used as a positive control.
For this study, further NMDAR antagonist compounds were tested for their ability to reduce immobility time in the rodent FST test, indicative of potential anti-depressant effects, and further 5-HT2AR antagonists were tested for their ability to produce reductions of time spent in the open arms of the EPM, indicative to potential liability to induce anxiety, akathisia and suicidality in humans

Male C57Bl/6J mice [1] = experiment: Elevated plus maze (EPM), DOI 2 mg/kg in all conditions; type: in vivo; details: for DTO Mean / PCT Mean: Table 2; for Reversal of 5-HT2A antagonist induced reductions in open arm measures of the EPM, in words: NMDAR antagonists, summary of Example 1; for Effect on open arm behavior in the EPM, in words: non-competitive NMDAR antagonist with MDL100907 .3 mg/kg (Table 1 lines 8,9); for Total distance travelled in the EPM, in words: with MDL100907 .3 mg/kg (Table 1 lines 8,9); for Mean distance travelled in the open arm of the EPM: Table 6, DOI 2 mg/kg added; for Effect on distance travelled in open arm / % time in open arm of EPM, in words: agent alone vs control, doses of Tables 1 and 2; for Distance travelled in the open arm relative to the vehicle, in words: Table 6 doses, DOI 2 mg/kg added in all conditions; for Distance Traveled Open (DTO) Mean / Percent open (PCT) Mean: Table 1
Male C57Bl/6J mice [2] = details: selective 5-HT2A antagonist alone; previously demonstrated (U.S. Pat. No. 9,846,453); cited from earlier work

## CN[C@H]1CC[C@@H](c2ccc(Cl)c(Cl)c2)c2ccccc21 [Sertraline]
Male BalbC/J mice; 20 mg/kg
  Mean immobility time in the rodent forced swim test (FST): 85.50

## O=C1[C@@H]2[C@H]3CC[C@H](C3)[C@@H]2C(=O)N1C[C@@H]1CCCC[C@H]1CN1CCN(c2nsc3ccccc23)CC1 [Lurasidone]
Male C57Bl/6J mice [1]; .1 mg/kg alone
  DTO Mean: 172.9
  PCT Mean: 32.5%
Male C57Bl/6J mice [1]; .2 mg/kg alone
  DTO Mean: 120.8
  PCT Mean: 22.9%
Male C57Bl/6J mice [1]; .3 mg/kg alone
  DTO Mean: 134.2
  PCT Mean: 26.6%
Male BalbC/J mice; 1 mpk alone
  immobility time in the rodent forced swim test (FST), Mean: 157 s
Male BalbC/J mice; 3 mpk alone
  immobility time in the rodent forced swim test (FST), Mean: 169 s
Male BalbC/J mice; .2 mpk alone
  immobility time in the rodent forced swim test (FST), Mean: 146 s

## c1ccc(C2(N3CCCCC3)CCCCC2)cc1 [PCP]
Male C57Bl/6J mice [1]
  Reversal of 5-HT2A antagonist induced reductions in open arm measures of the EPM, in words: worsened performance relative to DCS
  Effect on open arm behavior in the EPM, in words: did not significantly affect open arm behavior
  Total distance travelled in the EPM, in words: reduced total distance travelled

## N#Cc1c[nH]c2c(C(=O)N3CCN(CCc4ccc(F)cc4)CC3)cccc12 [EMD281014]
Male C57Bl/6J mice [1]; 1 mg/kg
  Mean distance travelled in the open arm of the EPM: 111.00
Male C57Bl/6J mice [1]; 3 mg/kg
  Mean distance travelled in the open arm of the EPM: 42.70
Male C57Bl/6J mice [1]; 10 mg/kg
  Mean distance travelled in the open arm of the EPM: 44.80

## O=C(c1ccc(F)cc1)C1CCN(CCn2c(=O)[nH]c3ccccc3c2=O)CC1 [ketanserin]
Male C57Bl/6J mice [2]
  Distance travelled in the open arm and % time in the open arm, in words: significantly reduced

## O=C1CCc2ccc(OCCCCN3CCN(c4cccc(Cl)c4Cl)CC3)cc2N1 [Aripiprazole]
Male C57Bl/6J mice [1]; 1 mg/kg alone
  DTO Mean: 113.9
  PCT Mean: 34.9%
Male C57Bl/6J mice [1]
  Effect on distance travelled in open arm / % time in open arm of EPM, in words: significantly decreased distance travelled in the open arm, but not % of time in the open arm

## CN(C)CCO/N=C(/C=C/c1ccc(O)cc1)c1ccccc1F [SR46349B]
Male C57Bl/6J mice [1]; 0.3 mg/kg
  Mean distance travelled in the open arm of the EPM: 127.10
Male C57Bl/6J mice [1]; 1 mg/kg
  Mean distance travelled in the open arm of the EPM: 98.00
Male C57Bl/6J mice [1]; 10 mg/kg
  Mean distance travelled in the open arm of the EPM: 105.90

## CN(C)CCCN1c2ccccc2CCc2ccccc21 [Imipramine]
Male C57Bl/6J mice [1]; 10 mg/kg
  Mean distance travelled in the open arm of the EPM: 235.00
Male C57Bl/6J mice [1]
  Distance travelled in the open arm relative to the vehicle, in words: no significant effects

## O=C(O)[C@H]1C[C@@H](CP(=O)(O)O)CCN1 (relative stereo) [CGS-19755, cis-4-(phosphonomethyl)-2-piperidinecarboxylic acid]
Male C57Bl/6J mice [1]
  Reversal of 5-HT2A antagonist induced reductions in open arm measures of the EPM, in words: Pro-therapeutic effects
Male BalbC/J mice; 0.03 mg/kg
  Mean immobility time in the rodent forced swim test (FST): 125.60
Male BalbC/J mice; 0.1 mg/kg
  Mean immobility time in the rodent forced swim test (FST): 144.30
Male BalbC/J mice; 0.3 mg/kg
  Mean immobility time in the rodent forced swim test (FST): 120.00
Male BalbC/J mice; 1.0 mg/kg
  Mean immobility time in the rodent forced swim test (FST): 137.20
Male BalbC/J mice; 3.0 mg/kg
  Mean immobility time in the rodent forced swim test (FST): 154.90
Male BalbC/J mice; 10 mg/kg
  Mean immobility time in the rodent forced swim test (FST): 114.70
Male BalbC/J mice
  Effect on immobility in the FST, in words: numerically reduce immobility

## O=C(/C=C/c1c(C(=O)O)[nH]c2cc(Cl)cc(Cl)c12)Nc1ccccc1 [Gavestinel]
Male BalbC/J mice; 0.1 mg/kg
  Mean immobility time in the rodent forced swim test (FST): 136.10
Male BalbC/J mice; 0.3 mg/kg
  Mean immobility time in the rodent forced swim test (FST): 116.30
Male BalbC/J mice; 1.0 mg/kg
  Mean immobility time in the rodent forced swim test (FST): 109.60
Male BalbC/J mice; 3.0 mg/kg
  Mean immobility time in the rodent forced swim test (FST): 122.70
Male BalbC/J mice; 10 mg/kg
  Mean immobility time in the rodent forced swim test (FST): 111.40
Male BalbC/J mice; 30 mg/kg
  Mean immobility time in the rodent forced swim test (FST): 131.90
Male BalbC/J mice
  Effect on immobility in the FST, in words: numerically reduce immobility

## CNCCC(Oc1ccc(C(F)(F)F)cc1)c1ccccc1 (centres unmarked) [Fluoxetine]
Male C57Bl/6J mice [1]; 10 mg/kg
  Mean distance travelled in the open arm of the EPM: 216.70
Male C57Bl/6J mice [1]
  Distance travelled in the open arm relative to the vehicle, in words: no significant effects

## CNC1(c2ccccc2Cl)CCCCC1=O (racemic) [ketamine, (R,S)-2-(2-Chlorphenyl)-2-(methylamino)cyclohexan-1-on]
Male C57Bl/6J mice [1]; 10 mg/kg ip alone
  Distance Traveled Open (DTO) Mean: 194.5
  Percent open (PCT) Mean: 40.3%
Male C57Bl/6J mice [1]
  Effect on distance travelled in open arm / % time in open arm of EPM, in words: does not significantly alter either distance traveled in the open arm or % time in the open arm
  Effect on open arm behavior in the EPM, in words: did not significantly affect open arm behavior
  Total distance travelled in the EPM, in words: reduced total distance travelled

## O=C(O)[C@H]1CN(C/C=C/P(=O)(O)O)CCN1 [D-CPPene, D-(E)-4-(3-phosphonoprop-2-enyl)piperazine-2-carboxylic acid]
Male C57Bl/6J mice [1]
  Reversal of 5-HT2A antagonist induced reductions in open arm measures of the EPM, in words: Pro-therapeutic effects
Male BalbC/J mice; 0.03 mg/kg
  Mean immobility time in the rodent forced swim test (FST): 124.20
Male BalbC/J mice; 0.1 mg/kg
  Mean immobility time in the rodent forced swim test (FST): 153.40
Male BalbC/J mice; 0.3 mg/kg
  Mean immobility time in the rodent forced swim test (FST): 129.10
Male BalbC/J mice; 1.0 mg/kg
  Mean immobility time in the rodent forced swim test (FST): 156.80
Male BalbC/J mice; 3.0 mg/kg
  Mean immobility time in the rodent forced swim test (FST): 124.60
Male BalbC/J mice; 10 mg/kg
  Mean immobility time in the rodent forced swim test (FST): 141.20

## CC(C)COc1ccc(CNC(=O)N(Cc2ccc(F)cc2)C2CCN(C)CC2)cc1 [Pimavanserin]
Male C57Bl/6J mice [1]; 0.3 mg/kg
  Mean distance travelled in the open arm of the EPM: 150.20
Male C57Bl/6J mice [1]; 1 mg/kg
  Mean distance travelled in the open arm of the EPM: 204.10
Male C57Bl/6J mice [1]; 10 mg/kg
  Mean distance travelled in the open arm of the EPM: 66.50
Male C57Bl/6J mice [1]
  Distance travelled in the open arm relative to the vehicle, in words: significantly reduced

## Cc1ccc(Sc2ccccc2N2CCNCC2)c(C)c1 [Vortioxetine]
Male C57Bl/6J mice [1]; 10 mg/kg
  Mean distance travelled in the open arm of the EPM: 237.90
Male C57Bl/6J mice [1]
  Distance travelled in the open arm relative to the vehicle, in words: no significant effects

## C[C@@H]([C@@H](O)c1ccc(O)cc1)N1CCC(O)(c2ccccc2)CC1 [CP101606]
Male C57Bl/6J mice [1]
  Reversal of 5-HT2A antagonist induced reductions in open arm measures of the EPM, in words: Pro-therapeutic effects

## Cc1nc2n(c(=O)c1CCN1CCC(c3noc4cc(F)ccc34)CC1)CCCC2 [Risperidone]
Male C57Bl/6J mice [1]; 1 mg/kg alone
  DTO Mean: 0.0
  PCT Mean: 0.0%
Male C57Bl/6J mice [1]; 1 mg/kg
  Mean distance travelled in the open arm of the EPM: 5.30

## O=c1ccc2ccc(OCCCCN3CCN(c4cccc5sccc45)CC3)cc2[nH]1 [Brexpiprazole]
Male C57Bl/6J mice [1]; .3 mg/kg alone
  DTO Mean: 131.6
  PCT Mean: 28.7%
Male C57Bl/6J mice [1]; 0.1 mg/kg
  Mean distance travelled in the open arm of the EPM: 160.10
Male C57Bl/6J mice [1]; 0.3 mg/kg
  Mean distance travelled in the open arm of the EPM: 204.70
Male C57Bl/6J mice [1]; 1 mg/kg
  Mean distance travelled in the open arm of the EPM: 93.70
Male BalbC/J mice; .3 mpk alone
  immobility time in the rodent forced swim test (FST), Mean: 239 s
Male BalbC/J mice; agent alone (Table 3)
  Effect on immobility in the forced swim test, in words: significantly increased immobility

## CN(C)C(=O)N[C@H]1CC[C@H](CCN2CCN(c3cccc(Cl)c3Cl)CC2)CC1 [Cariprazine]
Male C57Bl/6J mice [1]; 0.03 mg/kg
  Mean distance travelled in the open arm of the EPM: 186.00
Male C57Bl/6J mice [1]; 0.1 mg/kg
  Mean distance travelled in the open arm of the EPM: 174.30
Male C57Bl/6J mice [1]; 1 mg/kg
  Mean distance travelled in the open arm of the EPM: 69.70

## COc1ccc(C(CN(C)C)C2(O)CCCCC2)cc1 (centres unmarked) [Venflaxine]
Male C57Bl/6J mice [1]; 40 mg/kg
  Mean distance travelled in the open arm of the EPM: 224.60

## COc1cccc([C@H](O)C2CCN(CCc3ccc(F)cc3)CC2)c1OC [MDL100907]
Male C57Bl/6J mice [1]; .3 mg/kg alone
  Distance Traveled Open (DTO) Mean: 114.3
  Percent open (PCT) Mean: 19.2%
Male C57Bl/6J mice [1]
  Effect on distance travelled in open arm / % time in open arm of EPM, in words: significantly reduces both distance travelled in the open arm and % open arm activity
Male C57Bl/6J mice [2]
  Distance travelled in the open arm and % time in the open arm, in words: significantly reduced

## CCN(CC)C(=O)[C@@]1(c2ccccc2)C[C@H]1CN [Levomilnacipran]
Male C57Bl/6J mice [1]; 40 mg/kg
  Mean distance travelled in the open arm of the EPM: 237.90
Male C57Bl/6J mice [1]
  Distance travelled in the open arm relative to the vehicle, in words: no significant effects

## OCCOCCN1CCN(C2=Nc3ccccc3Sc3ccccc32)CC1 [Quetiapine]
Male C57Bl/6J mice [1]; 30 mg/kg alone
  DTO Mean: 42.8
  PCT Mean: 9.0%
